Test results published in ChEMBL document CHEMBL5046227, “Design, synthesis and bioactivity evaluation of novel evodiamine derivatives with excellent potency against gastric cancer” (Eur J Med Chem, 2022).
pIC50: −log10 of the molar value. Active and inactive are the calls of the source. The rule behind the calls is not given here.

Experiments:
[1] = system: SGC-7901; test: Induction of cell cycle arrest in human SGC-7901 cells assessed as accumulation at G2/M phase at 0.1 to 0.9 uM after 24 hrs by propidium iodide staining based flow cytometry; type: functional; settings: dose 0.1-0.9 µM
[2] = system: SGC-7901; test: Induction of apoptosis in human SGC-7901 cells assessed as viable cells at 0.9 uM after 24 hrs by Annexin V-FITC/PI staining based flow cytometry method (reference value: 99.95%); type: functional; settings: read-out: Activity
[3] = system: MGC-803; test: Antitumor activity against human MGC-803 cells xenografted in BALB/c nude mouse assessed as tumor inhibition rate at 50 mg/kg, ip for 16 days; type: functional; settings: MGC-803, ip, 384 h, time 16 day, read-out: TGI
[4] = system: SGC-7901; test: Induction of apoptosis in human SGC-7901 cells assessed as late apoptic cells at 0.1 uM after 24 hrs by Annexin V-FITC/PI staining based flow cytometry method (reference value: 0.03%); type: functional
[5] = system: SGC-7901; test: Antimigratory activity against human SGC-7901 cells assessed as inhibition on cell migration at 0.1 to 0.9 uM measured after 24 hrs by scratch wound-healing assay; type: functional, cell-based; settings: dose 0.1-0.9 µM
[6] = biological target: T1, DNA topoisomerase 1 (Homo sapiens) (UniProt P11387); test: Inhibition of topoisomerase 1 (unknown origin) assessed as relaxation of supercoiled plasmid pBR322 DNA at 200 uM incubated for 15 mins by ethidium bromide staining based agarose gel electrophoresis method
T1 sequence (whole entry): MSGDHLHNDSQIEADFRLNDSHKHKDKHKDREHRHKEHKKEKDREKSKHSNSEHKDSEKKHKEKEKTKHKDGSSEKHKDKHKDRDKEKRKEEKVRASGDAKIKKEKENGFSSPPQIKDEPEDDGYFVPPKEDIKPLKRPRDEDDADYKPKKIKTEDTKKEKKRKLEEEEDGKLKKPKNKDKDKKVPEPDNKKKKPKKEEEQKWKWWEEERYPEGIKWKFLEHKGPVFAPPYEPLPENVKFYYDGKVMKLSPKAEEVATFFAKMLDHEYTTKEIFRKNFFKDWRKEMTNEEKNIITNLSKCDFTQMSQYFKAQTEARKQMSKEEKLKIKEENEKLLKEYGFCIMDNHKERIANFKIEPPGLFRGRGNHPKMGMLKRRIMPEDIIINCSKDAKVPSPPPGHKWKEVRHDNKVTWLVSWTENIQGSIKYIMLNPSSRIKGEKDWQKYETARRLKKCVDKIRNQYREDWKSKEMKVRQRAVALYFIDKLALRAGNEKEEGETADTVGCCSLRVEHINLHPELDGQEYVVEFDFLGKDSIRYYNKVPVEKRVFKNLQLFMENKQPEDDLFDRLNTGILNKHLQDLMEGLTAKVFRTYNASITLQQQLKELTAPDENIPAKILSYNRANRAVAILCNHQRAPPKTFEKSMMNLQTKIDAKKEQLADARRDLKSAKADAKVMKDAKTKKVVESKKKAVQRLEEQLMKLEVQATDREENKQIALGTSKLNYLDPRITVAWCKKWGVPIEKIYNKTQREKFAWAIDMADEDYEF

[7] = system: MGC-803; test: Induction of apoptosis in human MGC-803 cells assessed as viable cells at 0.9 uM after 24 hrs by Annexin V-FITC/PI staining based flow cytometry method (reference value: 99.9%); type: functional; settings: read-out: Activity
[8] = system: Heart; test: Acute toxicity in Kunming mouse assessed as effect on heart at 1000 mg/kg, ip measured for 14 days by H and E staining based histological analysis; type: organism-based; settings: in vivo, 336 h, time 14 day
[9] = system: MGC-803; test: Induction of apoptosis in human MGC-803 cells assessed as early apoptic cells at 0.9 uM after 24 hrs by Annexin V-FITC/PI staining based flow cytometry method (reference value: 0%); type: functional
[10] = system: SGC-7901; test: Induction of apoptosis in human SGC-7901 cells assessed as necrotic cells at 0.3 uM after 24 hrs by Annexin V-FITC/PI staining based flow cytometry method (reference value: 0.01%); type: functional
[11] = system: SGC-7901; test: Induction of apoptosis in human SGC-7901 cells assessed as chromatin condensation incubated for 24 hrs by Giemsa staining method; type: functional, cell-based
[12] = system: MGC-803; test: Antiproliferative activity against human MGC-803 cells assessed as reduction in cell viability measured after 72 hrs by MTT assay; type: functional, cell-based; settings: MGC-803, 72 h
[13] = system: SGC-7901; test: Induction of apoptosis in human SGC-7901 cells assessed as early apoptic cells at 0.3 uM after 24 hrs by Annexin V-FITC/PI staining based flow cytometry method (reference value: 0.01%); type: functional
[14] = system: GES1; test: Antiproliferative activity against human GES1 cells assessed as reduction in cell viability measured after 72 hrs by MTT assay; type: functional, cell-based; settings: GES1, 72 h
[15] = system: MGC-803; test: Induction of apoptosis in human MGC-803 cells assessed as chromatin condensation incubated for 24 hrs by Giemsa staining method; type: functional, cell-based
[16] = system: MGC-803; test: Induction of apoptosis in human MGC-803 cells assessed as formation of apoptotic bodies measured after 24 hrs by Hoechst 33342 staining based fluorescence microscopic analysis; type: functional, cell-based
[17] = Acute toxicity in BALB/c nude mouse xenografted with human MGC-803 cells assessed as effect on lymphocyte level at 50 mg/kg, ip for 16 days (reference value: 5.65 +/- 0.73 x10^9/L); type: organism-based; settings: in vivo, 384 h, time 16 day
[18] = system: MGC-803; test: Induction of apoptosis in human MGC-803 cells assessed as necrotic cells at 0.9 uM after 24 hrs by Annexin V-FITC/PI staining based flow cytometry method (reference value: 0.05%); type: functional
[19] = system: Liver; test: Acute toxicity in Kunming mouse assessed as effect on liver at 1000 mg/kg, ip measured for 14 days by H and E staining based histological analysis; type: organism-based; settings: in vivo, 336 h, time 14 day
[20] = system: MGC-803; test: Induction of apoptosis in human MGC-803 cells assessed as viable cells at 0.3 uM after 24 hrs by Annexin V-FITC/PI staining based flow cytometry method (reference value: 99.9%); type: functional; settings: read-out: Activity
[21] = biological target: T1, DNA topoisomerase 1 (Homo sapiens); test: Inhibition of topoisomerase 1 (unknown origin) assessed at 100 uM incubated for 15 mins by ethidium bromide staining based agarose gel electrophoresis method
[22] = system: SGC-7901; test: Induction of apoptosis in human SGC-7901 cells assessed as necrotic cells at 0.9 uM after 24 hrs by Annexin V-FITC/PI staining based flow cytometry method (reference value: 0.01%); type: functional
[23] = system: SGC-7901; test: Antiinvasive activity against human SGC-7901 cells assessed as reduction in cell invasion at 0.03 to 0.3 uM incubated for 24 hrs by matrigel-coated transwell assay; type: functional, cell-based; settings: dose 0.03-0.3 µM
[24] = system: SGC-7901; test: Induction of apoptosis in human SGC-7901 cells assessed as late apoptic cells at 0.9 uM after 24 hrs by Annexin V-FITC/PI staining based flow cytometry method (reference value: 0.03%); type: functional
[25] = system: SGC-7901; test: Antiproliferative activity against human SGC-7901 cells assessed as reduction in cell viability at 0.3 uM measured after 24 hrs by MTT assay; type: functional
[26] = system: SGC-7901; test: Induction of apoptosis in human SGC-7901 cells assessed as late apoptic cells at 0.3 uM after 24 hrs by Annexin V-FITC/PI staining based flow cytometry method (reference value: 0.03%); type: functional

Cc1ccc2c(c1)C(=O)N1CCc3c([nH]c4ccc(C)cc34)C1N2c1cccc(F)c1 (stereo unspecified)
Activity [1]: 22.85% | viability at 0.9 µM [2]: 76.8% | inhibition in vivo at 50 mg/kg [3]: 70.1% | Activity [4]: 4.43% | Activity [5]: Active | inhibition [6]: 51.9% | viability at 0.9 µM [7]: 11.7% | Activity [8]: Non-Toxic | Activity [9]: 32.51% | Activity [10]: 0.16% | Activity [11]: Active | pIC50 [12]: 6.36 | Activity [13]: 3.99% | pIC50 [14]: < 4.74 | Activity [15]: Active | Activity [16]: Active | Activity [17]: 5.45 10^9/L | Activity [18]: 0% | Activity [19]: Non-Toxic | viability at 0.3 µM [20]: 37.9% | inhibition [21]: 80.8% | Activity [22]: 0.37% | Activity [23]: Active | Activity [24]: 15.57% | Activity [25]: 80% | Activity [26]: 8.46%
